# Laboratory results published in ChEMBL document CHEMBL3301555, “MMV Malaria Box screening in pLDH viability assay against Plasmodium falciparum gametocytes”.
# System: Plasmodium falciparum
# Assay: MMV: Measure of pLDH activity as indication of parasite viability. Gametocytogenesis of 3D7 Plasmodium falciparum strain was induced in vitro and asexual parasites were depleted with N-acetylglucosamine. Gametocytes were treated with dihydroartemisinin, epoxomicin, methylene blue, primaquine, puromycin or chloroquine in 96-well plates and the pLDH activity was evaluated using a modified Makler protocol. Mosquito infectivity was measured by the standard membrane feeding assay.
# Assay type: functional
# Set-up: concentration or dose not given beside the values
row,Structure (SMILES),Growth Inhibition
1,COc1ccc(CCN2C(=O)c3[nH]nc(-c4cc(Cl)c(C)cc4O)c3C2c2ccccc2F)cc1 (configuration not stated),16.338%
2,Cc1cc(N(C)C)nc(Nc2ccc(NC(=O)Nc3ccccc3)cc2)n1,16.1034%
3,OC(Cn1nnc2ccccc21)Cn1c2ccc(Br)cc2c2cc(Br)ccc21 (configuration not stated),11.39%
4,Nc1ccn([C@@H]2O[C@H](CO)[C@@H](O)[C@H]2O)c(=O)n1 [CYTIDINE],13.5248%
5,Oc1ccc(C(=C(Cl)Cl)c2ccc(O)cc2)cc1,9.2564%
6,COc1cc(OC)cc(N2C(=O)N(Cc3ccc(C(C)(C)C)cc3)c3ccccc3S2(=O)=O)c1,5.995%
7,CCOc1cc(Br)c(C(C)NC(=O)c2cccc(OC)c2)cc1OCC (configuration not stated),15.2596%
8,CCOC(=O)C1(Cc2ccccc2)CCN(Cc2cccc(OC)c2O)CC1,37.59%
9,CCn1c(SCC(=O)Nc2cc(C(F)(F)F)ccc2Cl)nc2ccccc2c1=O,-1.2952%
10,CN1CCN(c2nc(Nc3ccc(O)cc3)nc3ccccc23)CC1.Cl,11.7422%
11,CCOc1cc2c(cc1OCC)C(c1cc(OC)c(O)cc1Cl)NCC2 (configuration not stated),24.0654%
12,Cc1ccc(NC(=O)Nc2cccc(Cl)c2)cc1F,3.3088%
13,Cl.Oc1ccccc1CNCC12CC3CC(CC(C3)C1)C2,28.0055%
14,CCOC(=O)c1ccc2nc(-c3ccccc3)cc(O)c2c1,40.6125%
15,COCCNCC(O)Cn1c2ccc(Cl)cc2c2cc(Cl)ccc21 (configuration not stated),45.598%
16,O=C(NCC1Cc2cccc(-c3ccncc3)c2O1)c1csc2c1CCCC2 (configuration not stated),15.175%
17,COc1ccc(-c2c(C)nn3c(N)c(C#N)cnc23)cc1OC,32.2252%
18,COc1ccc(C(=O)Nc2nonc2-c2ccc(OC)c(OC)c2)cc1Cl,7.9826%
19,OC(CNCC1CCCO1)Cn1c2ccc(Cl)cc2c2cc(Cl)ccc21 (configuration not stated),10.6906%

row,Structure (SMILES),Growth Inhibition
1,COc1cccc(NC(=O)Cn2c(C)c(C#N)c3ccccc32)c1,15.89%
2,CCCCNCC(O)(c1ccc(Cl)cc1)c1ccc(Cl)cc1,33.502%
3,COc1ccc2c(=O)cc(C(Cl)(Cl)Cl)oc2c1,12.9182%
4,COc1ccccc1C(=O)ON=C(N)Cc1cccc2ccccc12,8.274%
5,COc1ccccc1N1C(=N)SC(=Cc2ccc(OCc3ccccc3F)cc2)C1=O,14.0558%
6,CN1c2ccccc2N(C)C1c1ccc2c(c1)OCO2,17.3464%
7,O=[N+]([O-])c1ccc(C=NNc2nc3ccccc3[nH]2)cc1,-2.3354%
8,Clc1ccc2c(N3CCCC3)ccnc2c1,18.4524%
9,COc1cccc(C2(C)Nc3ccccc3-c3nc4ccccc4n32)c1 (configuration not stated),2.1776%
10,COc1ccc(C(O)(CCC(C)C)C(CN2CCOCC2)c2ccc(Cl)cc2)cc1.Cl (configuration not stated),9.238%
11,CCOc1cc(Cl)c(C(C)NC(=O)c2ccccc2)cc1OCC (configuration not stated),3.3956%
12,c1ccc(CNc2nc(Nc3ccccc3)nc3ccccc23)cc1,12.3006%
13,CC(=O)Nc1nnc(SCc2c(C)cc(C(C)(C)C)cc2C)s1,-6.288%
14,CCOc1ccc2c(c1)CN(Cc1ccc(Cl)cc1)CO2,25.403%
15,O=C(Nc1ccc(-c2nc3ccccc3[nH]2)cc1)c1ccc(Cl)c(Cl)c1,11.2736%
16,Cc1ccc(OCCCCCCNCCO)c(C)c1,3.067%
17,CCOc1ccccc1NC(=O)CN1CCN(C(=O)c2ccco2)CC1,5.6622%
18,Cc1ccc(-c2nc3ccccc3o2)cc1NCc1cc(Cc2ccccc2)ccc1O,21.1902%
